Consider 15 compounds from patent US8613914B2, “Peptidomimetic sulfamide compounds and antiviral uses thereof” (Novartis AG, priority 2009, dated 2013).

The structures appear in SMILES notation.

HCV NS3-4A serine protease (full-length NS3-4A protein), sequence (P26664 1027-1657): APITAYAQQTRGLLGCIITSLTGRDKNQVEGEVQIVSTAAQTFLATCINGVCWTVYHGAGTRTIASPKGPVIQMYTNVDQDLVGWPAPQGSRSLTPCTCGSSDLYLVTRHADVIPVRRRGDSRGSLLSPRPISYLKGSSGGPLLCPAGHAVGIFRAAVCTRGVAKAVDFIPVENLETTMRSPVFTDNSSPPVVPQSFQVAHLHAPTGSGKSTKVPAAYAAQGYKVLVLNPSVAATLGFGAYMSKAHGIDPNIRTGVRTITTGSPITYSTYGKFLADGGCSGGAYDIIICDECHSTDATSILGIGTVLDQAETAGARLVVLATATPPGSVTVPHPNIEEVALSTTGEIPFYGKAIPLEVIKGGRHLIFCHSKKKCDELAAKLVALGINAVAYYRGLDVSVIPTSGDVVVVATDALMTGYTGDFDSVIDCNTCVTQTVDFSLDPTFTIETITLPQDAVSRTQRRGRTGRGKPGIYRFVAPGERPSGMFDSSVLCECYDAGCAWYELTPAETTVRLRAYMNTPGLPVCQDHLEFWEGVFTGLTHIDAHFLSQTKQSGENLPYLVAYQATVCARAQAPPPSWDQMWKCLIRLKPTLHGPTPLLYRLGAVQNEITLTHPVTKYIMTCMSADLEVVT
HCV NS3-4A serine protease (full-length NS3-4A protein), sequence (P26664 1658-1711 partner): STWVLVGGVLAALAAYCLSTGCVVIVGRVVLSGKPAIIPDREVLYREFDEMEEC

This experiment deals with HCV NS3-4A serine protease (full-length NS3-4A protein) (Hepatitis C virus genotype 1a (isolate 1) (HCV), UniProt P26664). The experiment in a line: HCV NS3-4A protease assay. The settings on record: strain HCV-1, fluorogenic peptide substrate, read-out: Protease assay Ex. 12 IC50. Type of experiment: biochemical, HCV genotype 1a. The method, then:
The inhibitory activity of certain compounds of Table A against HCV NS3-4A serine protease is determined in a homogenous assay using the full-length NS3-4A protein (genotype 1a, strain HCV-1) and a commercially available internally-quenched fluorogenic peptide substrate as described by Taliani, M., et al. 1996 Anal. Biochem. 240:60-67, which is incorporated by reference in its entirety.
In general, IC50 refers to the concentration that gives 50% inhibition. As for `C=C[C@@H]1C[C@]1(NC(=O)[C@@H]1C[C@@]2(CN1C(=O)[C@@H](NC(=O)[C@@H](NC(=O)c1cnccn1)C1CCCCC1)C(C)(C)C)C(C)(C)C21CCC1)C(=O)NS(=O)(=O)NC1CC1` [Compound 165, (5R,8S)-7-[(2S)-2-({(2S)-2-cyclohexyl-2-[(pyrazin-2-ylcarbonyl)amino]acetyl}amino)-3,3-dimethylbutanoyl]-N-[(1R,2S)-1-{[(cyclopropylamino)sulfonyl]carbamoyl}-2-vinylcyclopropyl]-10,10-dimethyl-7-azadispiro[3.0.4.1]decane-8-carboxamide], the concentration for half-maximal inhibition (IC50) is 6.2 nM.

For the compound `C=C[C@@H]1C[C@]1(NC(=O)[C@@H]1C[C@@]2(CN1C(=O)[C@@H](NC(=O)[C@@H](NC(=O)c1cnccn1)C1CCCCC1)C(C)(C)C)C(C)(C)C21CCC1)C(=O)NS(=O)(=O)NC(C)(C)C` [Compound 166, (5R,8S)-N-[(1R,2S)-1-{[(tert-butylamino)sulfonyl]carbamoyl}-2-vinylcyclopropyl]-7-[(2S)-2-({(2S)-2-cyclohexyl-2-[(pyrazin-2-ylcarbonyl)amino]acetyl}amino)-3,3-dimethylbutanoyl]-10,10-dimethyl-7-azadispiro[3.0.4.1]decane-8-carboxamide], the IC50 came out at 10 nM.

For the compound `C=C[C@@H]1C[C@]1(NC(=O)[C@@H]1C[C@@]2(CN1C(=O)[C@@H](NC(=O)[C@@H](NC(=O)c1cnccn1)C1CCCCC1)C(C)(C)C)C(C)(C)C21CCC1)C(=O)NS(=O)(=O)N(C)CC` [Compound 167, (5R,8S)-7-[(2S)-2-({(2S)-2-cyclohexyl-2-[(pyrazin-2-ylcarbonyl)amino]acetyl}amino)-3,3-dimethylbutanoyl]-N-[(1R,2S)-1-({[ethyl(methyl)amino]sulfonyl}carbamoyl)-2-vinylcyclopropyl]-10,10-dimethyl-7-azadispiro[3.0.4.1]decane-8-carboxamide], the IC50 is 0.6 nM.

As for `C=C[C@@H]1C[C@]1(NC(=O)[C@@H]1C[C@@]2(CN1C(=O)[C@@H](NC(=O)[C@@H](NC(=O)[C@@H]1CCCCN1C(C)C)C1CCCCC1)C(C)(C)C)C(C)(C)C21CCC1)C(=O)NS(=O)(=O)NC(C)(C)C` [Compound 169, (5R,8S)-N-[(1R,2S)-1-{[(tert-butylamino)sulfonyl]carbamoyl}-2-vinylcyclopropyl]-7-[(2S)-2-{[(2S)-2-cyclohexyl-2-({[(2S)-1-isopropylpiperidin-2-yl]carbonyl}amino)acetyl]amino}-3,3-dimethylbutanoyl]-10,10-dimethyl-7-azadispiro[3.0.4.1]decane-8-carboxamide], the IC50 turned out to be 1.5 nM.

As to `C=C[C@@H]1C[C@]1(NC(=O)[C@@H]1C[C@@]2(CN1C(=O)[C@@H](NC(=O)[C@@H](NC(=O)[C@@H]1CCCCN1C(C)C)C1CCCCC1)C(C)(C)C)C(C)(C)C21CCC1)C(=O)NS(=O)(=O)N(C)CC` [Compound 170, (5R,8S)-7-[(2S)-2-{[(2S)-2-cyclohexyl-2-({[(2S)-1-isopropylpiperidin-2-yl]carbonyl}amino)acetyl]amino}-3,3-dimethylbutanoyl]-N-[(1R,2S)-1-({[ethyl(methyl)amino]sulfonyl}carbamoyl)-2-vinylcyclopropyl]-10,10-dimethyl-7-azadispiro[3.0.4.1]decane-8-carboxamide], the IC50 was 0.5 nM.

Take `C=C[C@@H]1C[C@]1(NC(=O)[C@@H]1C[C@@]2(CN1C(=O)[C@@H](NC(=O)[C@@H](NC(=O)c1cnccn1)C1CCCCC1)C(C)(C)C)C(C)(C)C21CCC1)C(=O)NS(=O)(=O)N(CC)CC` [Compound 173, (5R,8S)-7-[(2S)-2-({(2S)-2-cyclohexyl-2-[(pyrazin-2-ylcarbonyl)amino]acetyl}amino)-3,3-dimethylbutanoyl]-N-[(1R,2S)-1-{[(diethylamino)sulfonyl]carbamoyl}-2-vinylcyclopropyl]-10,10-dimethyl-7-azadispiro[3.0.4.1]decane-8-carboxamide]: the IC50 is 3 nM.

In the case of `C=C[C@@H]1C[C@]1(NC(=O)[C@@H]1C[C@@]2(CN1C(=O)[C@@H](NC(=O)[C@@H](NC(=O)[C@@H]1CCCCN1C(C)C)C1CCCCC1)C(C)(C)C)C(C)(C)C21CCC1)C(=O)NS(=O)(=O)N(CC)CC` [Compound 174, (5R,8S)-7-[(2S)-2-{[(2S)-2-cyclohexyl-2-({[(2S)-1-isopropylpiperidin-2-yl]carbonyl}amino)acetyl]amino}-3,3-dimethylbutanoyl]-N-[(1R,2S)-1-{[(diethylamino)sulfonyl]carbamoyl}-2-vinylcyclopropyl]-10,10-dimethyl-7-azadispiro[3.0.4.1]decane-8-carboxamide], the IC50 is 0.6 nM.

For `C=C[C@@H]1C[C@]1(NC(=O)[C@@H]1C[C@@]2(CN1C(=O)[C@@H](NC(=O)[C@@H](NC(=O)Cc1ccncc1)C1CCCCC1)C(C)(C)C)C(C)(C)C21CCC1)C(=O)NS(=O)(=O)N1CCCC1` [Compound 175, (5R,8S)-7-[(2S)-2-({cyclohexyl[(pyridin-4-ylacetyl)amino]acetyl}amino)-3,3-dimethylbutanoyl]-10,10-dimethyl-N-{(1R,2S)-1-[(pyrrolidin-1-ylsulfonyl)carbamoyl]-2-vinylcyclopropyl}-7-azadispiro[3.0.4.1]decane-8-carboxamide], the IC50 was 10 nM.

Consider `C=C[C@@H]1C[C@]1(NC(=O)[C@@H]1C[C@@]2(CN1C(=O)[C@@H](NC(=O)[C@@H](NC(=O)c1cc3cc(OC)ccc3[nH]1)C1CCCCC1)C(C)(C)C)C(C)(C)C21CCC1)C(=O)NS(=O)(=O)N1CCCC1` [Compound 176, (5R,8S)-7-{(2S)-2-[(cyclohexyl{[(5-methoxy-1H-indol-2-yl)carbonyl]amino}acetyl)amino]-3,3-dimethylbutanoyl}-10,10-dimethyl-N-{(1R,2S)-1-[(pyrrolidin-1-ylsulfonyl)carbamoyl]-2-vinylcyclopropyl}-7-azadispiro[3.0.4.1]decane-8-carboxamide], for which the IC50 came out at 25 nM.

With `C=C[C@@H]1C[C@]1(NC(=O)[C@@H]1C[C@@]2(CN1C(=O)[C@@H](NC(=O)[C@@H](NC(=O)CN1CCc3ccccc3C1)C1CCCCC1)C(C)(C)C)C(C)(C)C21CCC1)C(=O)NS(=O)(=O)N1CCCC1` [Compound 177, (5R,8S)-7-[(2S)-2-({cyclohexyl[(3,4-dihydroisoquinolin-2(1H)-ylacetyl)amino]acetyl}amino)-3,3-dimethylbutanoyl]-10,10-dimethyl-N-{(1R,2S)-1-[(pyrrolidin-1-ylsulfonyl)carbamoyl]-2-vinylcyclopropyl}-7-azadispiro[3.0.4.1]decane-8-carboxamide], the 50% inhibitory concentration (IC50) was found to be 25 nM.

On to `C=C[C@@H]1C[C@]1(NC(=O)[C@@H]1C[C@@]2(CN1C(=O)[C@@H](NC(=O)[C@@H](NC(=O)c1cc3ccccc3n1C)C1CCCCC1)C(C)(C)C)C(C)(C)C21CCC1)C(=O)NS(=O)(=O)N1CCCC1` [Compound 178, (5R,8S)-7-{(2S)-2-[(cyclohexyl{[(1-methyl-1H-indol-2-yl)carbonyl]amino}acetyl)amino]-3,3-dimethylbutanoyl}-10,10-dimethyl-N-{(1R,2S)-1-[(pyrrolidin-1-ylsulfonyl)carbamoyl]-2-vinylcyclopropyl}-7-azadispiro[3.0.4.1]decane-8-carboxamide], for which the IC50 was determined as 80 nM.

For `C=C[C@@H]1C[C@]1(NC(=O)[C@@H]1C[C@@]2(CN1C(=O)[C@@H](NC(=O)[C@@H](NC(=O)CC1CCCCO1)C1CCCCC1)C(C)(C)C)C(C)(C)C21CCC1)C(=O)NS(=O)(=O)N1CCCC1` (stereo partly drawn) [Compound 179, (5R,8S)-7-[(2S)-2-({cyclohexyl[(tetrahydro-2H-pyran-2-ylacetyl)amino]acetyl}amino)-3,3-dimethylbutanoyl]-10,10-dimethyl-N-{(1R,2S)-1-[(pyrrolidin-1-ylsulfonyl)carbamoyl]-2-vinylcyclopropyl}-7-azadispiro[3.0.4.1]decane-8-carboxamide], the IC50 came out at 25 nM.

Turning to `C=C[C@@H]1C[C@]1(NC(=O)[C@@H]1C[C@@]2(CN1C(=O)[C@@H](NC(=O)[C@@H](NC(=O)c1cc(C)nn1CC)C1CCCCC1)C(C)(C)C)C(C)(C)C21CCC1)C(=O)NS(=O)(=O)N1CCCC1` [Compound 180, (5R,8S)-7-{(2S)-2-[(cyclohexyl{[(1-ethyl-3-methyl-1H-pyrazol-5-yl)carbonyl]amino}acetyl)amino]-3,3-dimethylbutanoyl}-10,10-dimethyl-N-{(1R,2S)-1-[(pyrrolidin-1-ylsulfonyl)carbamoyl]-2-vinylcyclopropyl}-7-azadispiro[3.0.4.1]decane-8-carboxamide], the IC50 was determined as 30 nM.

As for `C=C[C@@H]1C[C@]1(NC(=O)[C@@H]1C[C@@]2(CN1C(=O)[C@@H](NC(=O)[C@@H](NC(=O)c1cc(C(C)(C)C)nn1C)C1CCCCC1)C(C)(C)C)C(C)(C)C21CCC1)C(=O)NS(=O)(=O)N1CCCC1` [Compound 181, (5R,8S)-7-[(2S)-2-{[{[(3-tert-butyl-1-methyl-1H-pyrazol-5-yl)carbonyl]amino}(cyclohexyl)acetyl]amino}-3,3-dimethylbutanoyl]-10,10-dimethyl-N-{(1R,2S)-1-[(pyrrolidin-1-ylsulfonyl)carbamoyl]-2-vinylcyclopropyl}-7-azadispiro[3.0.4.1]decane-8-carboxamide], the IC50 amounted to 90 nM.

Consider `C=C[C@@H]1C[C@]1(NC(=O)[C@@H]1C[C@@]2(CN1C(=O)[C@@H](NC(=O)[C@@H](NC(=O)c1ccccc1NC)C1CCCCC1)C(C)(C)C)C(C)(C)C21CCC1)C(=O)NS(=O)(=O)N1CCCC1` [Compound 182, (5R,8S)-7-{(2S)-2-[(cyclohexyl{[2-(methylamino)benzoyl]amino}acetyl)amino]-3,3-dimethylbutanoyl}-10,10-dimethyl-N-{(1R,2S)-1-[(pyrrolidin-1-ylsulfonyl)carbamoyl]-2-vinylcyclopropyl}-7-azadispiro[3.0.4.1]decane-8-carboxamide], for which the IC50 amounted to 70 nM.
